Literature values as cited in patent US6569404B1, “Phase shift colloids as ultrasound contrast agents” (priority 1993, dated 2003).
Where two headings read alike, the source gives them in different places.

Details: cited from earlier work
[1] = Chemical List of low boiling liquids, Example 45
[2] = boiling point under standard pressure conditions, chemical list arranged by total atoms
[3] = dispersed phase of emulsions of Example 18

| SMILES | Boiling Point [1] | other results |
| --- | --- | --- |
| [Ne] [Neon] | −246.0 degrees Celcius | – |
| F[C](F)(F)[Ge]([C](F)(F)F)([C](F)(F)F)[C](F)(F)F [Tetrakis(trifluoromethyl) germane] | – | Boiling Point [2]: 31.7 degrees Celcius |
| CS [Methanethiol] | 62 degrees Celcius | – |
| FC(F)(Cl)C(F)(F)Cl [1,2-dichloro-tetrafluoro-ethane] | – | Boiling Point [2]: 3.5 degrees Celcius |
| C#CC [Propyne] | −23.2 degrees Celcius | – |
| FC(F)(F)SC(F)(F)F [Trifluoromethyl sulfide] | −22.2 degrees Celcius | – |
| CCC1CC1 [ethyl-cyclopropane] | – | Boiling Point [2]: 35.8 degrees Celcius |
| C=C1C=CC=C1 [Fulvene] | 7.0 degrees Celcius | – |
| Cc1cc2ccccc2c2cc3ccccc3cc12 [1,2-Benzanthracene, 4-methyl] | 1.0 degrees Celcius | – |
| CSC [dimethyl sulfide] | – | Boiling Point [2]: 36 degrees Celcius |
| COCC(F)(F)F [1,1,1-trifluoro-2-methoxy-ethane] | – | Boiling Point [2]: 31 degrees Celcius |
| FC(F)(F)SCl [Methanesulfenylchloride, trifluoro] | −0.7 degrees Celcius | – |
| CCC(C)(F)F [2,2 difluoro-butane] | – | Boiling Point [2]: 30.92 degrees Celcius |
| C=CC=C [1,3-Butadiene] | −4.4 degrees Celcius | – |
| CCOC [ethyl-methyl ether] | – | Boiling Point [2]: 6.6 degrees Celcius |
| C=C=CC [1,2-Butadiene] | 10.8 degrees Celcius | – |
| C1CC12CC2 [spiropentane] | – | Boiling Point [2]: 35 degrees Celcius |
| O=NC(F)(F)C(F)(F)C(F)(F)F [Propane, heptafluoro-1-nitrose] | −12.0 degrees Celcius | – |
| C#CC=C [Vinyl acetylene] | 5.1 degrees Celcius | – |
| CCN(C)C [Dimethyl ethyl amine] | 36.0 degrees Celcius | – |
| FCCC(F)(F)F [1,1,1,3-tetrafluoro-propane] | – | Boiling Point [2]: 29.4 degrees Celcius |
| CCC=C(F)F [1,1-difluoro-but-1-ene] | – | Boiling Point [2]: 3.71 degrees Celcius |
| O=S(=O)(Cl)C(F)(F)F [Methane sulfonyl chloride, trifluoro] | 31.6 degrees Celcius | – |
| CC#CC [Example 2-Butyne, 2-Butyne] | 27.0 degrees Celcius | – |
| C=CC=C(F)F [1,1-difluoro-buta-1,3-diene] | – | Boiling Point [2]: 3.5 degrees Celcius |
| [Kr] [Krypton] | −153.0 degrees Celcius | – |

| SMILES | Boiling Point [1] | other results |
| --- | --- | --- |
| F[C](F)(F)[Ge]([Cl])([C](F)(F)F)[C](F)(F)F [Tris-(trifluoromethyl)-germaniumchloride] | – | Boiling Point [2]: 37 degrees Celcius |
| FC(F)OCC(F)(F)F [Ether, difluoromethyl 2,2,2-trifluoroethyl] | 28.0 degrees Celcius | – |
| FC(F)(F)C(F)(F)C(F)(F)C(F)(F)F [decafluoro-butane] | – | Boiling Point [2]: −1.7 degrees Celcius |
| CCC1CC1 [Cyclopropane, ethyl] | 34.5 degrees Celcius | – |
| C#CC(C)C [Acetylene, isopropyl] | 0.0 degrees Celcius | – |
| CON=O [Methyl nitrite] | −12.0 degrees Celcius | – |
| FC(F)(F)N=NC(F)(F)F [Azomethane, hexafluoro] | −31.6 degrees Celcius | – |
| CCNC [Ethyl methyl amine] | 36.7 degrees Celcius | – |
| C=C(C)C(F)(F)F [3,3,3-trifluoro-2-methyl-propene] | – | Boiling Point [2]: 6 degrees Celcius |
| CC[Si](F)(F)F [ethyl-trifluoro-silane] | – | Boiling Point [2]: −4.4 degrees Celcius |
| CCCC(F)(F)F [1,1,1-trifluoro-butane] | – | Boiling Point [2]: 16.74 degrees Celcius |
| FC(F)(F)Cl [Methane, chloro trifluoro] | −81.4 degrees Celcius | – |
| O=[N+]([O-])C(F)(F)Cl [Methane, chloro difluoro nitro] | 25.0 degrees Celcius | – |
| CCC[Si](F)(F)F [trifluoro-propyl-silane] | – | Boiling Point [2]: 25 degrees Celcius |
| [SiH3]C[SiH3] [Methane, disilano] | 14.7 degrees Celcius | – |
| FC(F)(F)C(F)(F)C(F)(F)C(F)(F)C(F)(F)C(F)(F)C(F)(F)C(F)(F)F [Perfluorooctane, reference compound] | – | Boiling Point [3]: 98 °C |
| CC=CC#N [Crotononitrile] | 12.0 degrees Celcius | – |
| C=COC=C [Vinyl ether] | 28.0 degrees Celcius | – |
| CCON=O [Ethyl nitrite] | 16.0 degrees Celcius | – |
| O=[N+]([O-])C(F)(F)F [Methane, nitro-trifluoro] | −31.1 degrees Celcius | – |
| CCCCON=O [Butyl nitrite] | −77.8 degrees Celcius | – |
| FC(Cl)Cl [Methane, dichloro-fluoro] | 9.0 degrees Celcius | – |
| [N-]=[N+]=O [Nitrous oxide] | −88.5 degrees Celcius | – |
| FC(F)=C(F)C(F)=C(F)F [1,3-Butadiene, hexafluoro] | 6.0 degrees Celcius | – |
| C [Methane] | −164.0 degrees Celcius | – |
| CC1CCC(C)C(C)N1 (stereo not shown) [Piperidine,2,3,6-trimethyl] | 36.0 degrees Celcius | – |

| SMILES | Boiling Point [1] | other results |
| --- | --- | --- |
| O=C=S [Carbonyl sulfide] | −50.0 degrees Celcius | – |
| COC=O [Formic acid, methyl ester] | 31.5 degrees Celcius | – |
| CC(=O)F [Acetyl fluoride] | 20.8 degrees Celcius | – |
| CC[C@H](C)CF [(−)(S)-1-fluoro-2-methyl-butane] | – | Boiling Point [2]: 14.1 degrees Celcius |
| FCCl [Methane, chloro fluoro] | −9.1 degrees Celcius | – |
| CCN [Ethyl amine] | 16.6 degrees Celcius | – |
| CC(C(F)(F)F)C(F)(F)F [1,1,1,3,3,3-hexafluoro-2-methyl-propane] | – | Boiling Point [2]: 21.5 degrees Celcius |
| FC(F)(F)C(F)(F)C(F)(F)F [Propane, perfluoro] | −36.0 degrees Celcius | – |
| CC1CCC1 [methyl-cyclobutane] | – | Boiling Point [2]: 36 degrees Celcius |
| FC(F)(F)C#CC(F)(F)F [2-Butyne, perfluoro] | −24.6 degrees Celcius | – |
| O=C(C(F)(F)F)C(F)(F)Br [bromo-pentafluoro-acetone] | – | Boiling Point [2]: 31 degrees Celcius |
| FN(F)C(F)(F)C(F)(F)F [Ethyl amine, perfluoro] | −35.0 degrees Celcius | – |
| FCF [Methane, difluoro] | −51.6 degrees Celcius | – |
| C/C=C/C [2-Butene (trans)] | 0.9 degrees Celcius | – |
| FC(F)(F)F [Methane, tetrafluoro] | −129.0 degrees Celcius | – |
| CC1CC1 [Cyclopropane, methyl] | 4.0 degrees Celcius | – |
| FC(F)=C(F)C(F)(F)C(F)(F)F [1-Butene, perfluoro] | 4.8 degrees Celcius | – |
| FC(F)(F)Br [Methane, bromo-trifluoro] | −57.9 degrees Celcius | – |
| COC(C)C [Methyl isopropyl ether] | 32.5 degrees Celcius | – |
| CC(C)C(F)(F)F [Example 2-Trifluoromethyl-propane, 2-Trifluoromethyl-propane] | – | Boiling Point [2]: 13 degrees Celcius |
| CCOC [Ethyl methyl ether] | 10.8 degrees Celcius | – |
| FC(Cl)Br (stereo not shown) [Methane, bromo-chloro-fluoro] | 36.0 degrees Celcius | – |
| FC(F)I [difluoro-iodo-methane] | – | Boiling Point [2]: 21.6 degrees Celcius |
| C=COCC [Ethyl vinyl ether] | 35.0 degrees Celcius | – |
| O=NC(F)(F)F [Methane, nitroso-trifluoro] | −84.0 degrees Celcius | – |
| COC.Cl [Dimethyloxonium chloride] | −2.0 degrees Celcius | – |

| SMILES | Boiling Point [1] | other results |
| --- | --- | --- |
| [Xe] [Xenon] | −108.0 degrees Celcius | – |
| FC(F)=C(F)C(F)(F)F [Propylene, perfluoro] | −29.4 degrees Celcius | – |
| C=C=C [Allene] | −34.5 degrees Celcius | – |
| FC(F)=C=C(F)F [Allene, tetrafluoro] | −38.0 degrees Celcius | – |
| FC(Cl)(Cl)Cl [Methane, trichlorofluoro] | 23.7 degrees Celcius | – |
| N#N [Nitrogen (N2)] | −196.0 degrees Celcius | – |
| O=C(Cl)c1c(Cl)c(Cl)c(Cl)c(Cl)c1Cl [Benzoyl chloride, pentachloro] | 5.0 degrees Celcius | – |
| CP(C)NP(C)C [bis(Dimethyl phosphino) amine] | 33.5 degrees Celcius | – |
| CN(C)C [Trimethyl amine] | 2.9 degrees Celcius | – |
| C=CCCC [Example 1-Pentene, 1-Pentene] | 30.0 degrees Celcius | – |
| CI [Methane, iodo-] | 42.4 degrees Celcius | – |
| O=C(C(F)(F)F)C(F)(F)[N+](=O)[O-] [Pentafluoronitroacetone] | – | Boiling Point [2]: 32.6 degrees Celcius |
| C1CC1 [Cyclopropane] | −32.7 degrees Celcius | – |
| FC(F)(F)C(F)(F)C(F)(F)C(F)(F)F [Decaflurobutane] | 4.0 degrees Celcius | Boiling Point [3]: −5.8 °C |
| [F][W]([F])([F])([F])([F])[F] [Tungsten hexafluoride] | 17.5 degrees Celcius | – |
| CC(C)(C)C [Neopentane] | 9.5 degrees Celcius | – |
| FC(F)(Br)Br [Methane, dibromo difluoro] | 24.5 degrees Celcius | – |
| CCN(C)C [ethyl-dimethyl-amine] | – | Boiling Point [2]: 36.4 degrees Celcius |
| C=C(C)C(F)F [3,3 difluoro-2-methyl-propene] | – | Boiling Point [2]: 28.1 degrees Celcius |
| C#CC#C [Diacetylene] | 22.0 degrees Celcius | – |
| O=NCl [Nitrosyl chloride] | −5.5 degrees Celcius | – |
| FC(=C(F)C(F)(F)F)C(F)(F)F [2-Butene, octafluoro] | 1.2 degrees Celcius | – |
| FC(F)=C(F)C(F)(F)C(F)(F)C(F)(F)F [1-Pentene, perfluoro] | 29.0 degrees Celcius | – |
| C=CC#CCCCCC [1-Nonene-3-yne] | 27.0 degrees Celcius | – |
